Reference: US20100130522A1, “COMPOUNDS FOR INFLAMMATION AND IMMUNE-RELATED USES” (Synta Pharmaceuticals Corp., priority 2008, published 2010)

What was measured:
CRACM1/STIM1-CHOK1 = target: T1, CRACM1/STIM1-CHOK1 (Homo sapiens, UniProt Q96D31); assay: Patch clamp inhibition of ICRAC current in CRACM1/STIM1-CHOK1 cells; type: cell-based; details: 500 nM; given as activity class
T1 construct: Full length human Stim1, CracM1, CracM2 and CracM3 cDNA; Stim1 induced with doxycycline
Experimental: Manual patch clamp experiments are conducted in the tight-seal whole-cell configuration at room temperature (21-25° C.). Patch pipettes are fashioned from borosilicate glass capillary tubes and have resistances between 2-4 MΩ after filling with standard intracellular solution. High resolution current recordings are acquired with a computer-based patch clamp amplifier system (EPC-10, HEKA, Lambrecht, Germany). All voltages are corrected for a liquid junction potential of 10 mV between external and internal solutions with glutamate as the intracellular anion. Currents are filtered at 2.9 kHz and digitized at 10 μs intervals. Capacitive currents and series resistance are determined and corrected before each voltage ramp using the automatic capacitance compensation of the EPC-10.
Automated patch clamp experiments are conducted with the QPatch 16 (Sophion Bioscience, Ballerup, Denmark) at room temperature (21-25° C.). Immediately following the establishment of giga-seal whole-cell configuration, the cells membrane potential is clamped at 0 mV. Voltage ramps of 50 ms duration spanning the voltage range of −100 to +100 mV are then stimulated at a rate of 0.33 Hz. Currents are filtered at 2.9 kHz and digitized at 200 μs intervals. Capacitive currents and series resistance are determined and corrected before each voltage ramp using the automatic capacitance compensation.
In general, a whole cell patch clamp method is used to examine the effects of a compound of the invention on a channel(s) that mediates ICRAC. In such experiments, a baseline ICRAC measurement is established within the first 70 voltage ramps, or 140 seconds, for a patched cell. Then the cells are perfused with the compound to be tested and the effect of the compound on ICRAC is measured for at least an additional 440 to 500 seconds. A compound that modulates ICRAC (e.g., inhibits) is a compound that is useful in the invention for modulating CRAG ion channel activity.
Off-line analysis with the Heka PatchMaster software is used to separate the ICRAC membrane current from the cells basal background currents. In a typical recording, InsP3 stimulated ICRAC currents begin to develop in 6 to 12 seconds after whole cell is established. Therefore, the first 1-4 voltage ramps represent the basal membrane currents in the absence of ICRAC and the average value is subtracted from all subsequent traces. The current value at −80 mV for each ramp trace is then measured and plotted against time. The resulting current versus time data is exported into a Microsoft Excel spreadsheet. The % ICRAC inhibition in each cell is calculated by comparing the amount of current just prior to the compound perfusion to the amount of current after the cells has been perfused with the compound for 440-500 seconds. The IC50 value and Hill coefficient for each compound is estimated by fitting all the individual data points to a single-site Hill equation.
TREx™-CHO cells were transfected with human Stim1 (recombinant DNA in pcDNA4/TO/myc-His™ A with a myc epitope tag in the N-terminal) and either CracM1, CracM2 or CracM3 (recombinant DNA in pcDNA 3.1 with a HA epitope tag in the N-terminal). Stably expressing cells were selected by growing the transfected cells in antibiotics for two to three weeks. Individual cell clones were isolated via serial dilution. Full length human Stim1, CracM1, CracM2 and CracM3 cDNA, TREx™-CHO cells, pcDNA4/TO/myc-His™ A and pcDNA 3.1 were purchased from Invitrogen (Carlsbad, Calif.). All cells clones are grown in Ham's F-12 media supplemented with 10% fetal bovine serum, penicillin 100 U/ml, streptomycin 100 ? g/ml, Zeocin™ (200 ? g/ml), Geneticin (500 ? g/ml) and blasticidin (10 ? g/ml) in an atmosphere of 95% air/5% CO2. Stim1 expression was induced with doxycycline (1 ? g/ml) for 16-20 hrs. […]

[1] = tested on: IL-2 production, Jurkat cells; assay: Inhibition of IL-2 production in PHA-activated Jurkat cells (ELISA); type: cell-based; details: Homo sapiens, 1% FBS
Experimental: Jurkat cells were placed in a 96 well plate (0.5 million cells per well in 1% FBS medium), and then a test compound of this invention was added at different concentrations. After 10 minutes, the cells were activated with PHA (final concentration 2.5 μg/mL) and incubated for 20 hours at 37° C. under 5% CO2. The final volume was 200 μL. Following incubation, the cells were centrifuged, and the supernatants collected and stored at −70° C. prior to assaying for IL-2 production. A commercial ELISA kit (IL-2 Eli-pair, Diaclone Research, Besancon, France) was used to detect production of IL-2, from which dose response curves were obtained. The IC50 value was calculated as the concentration at which 50% of maximum IL-2 production after stimulation was inhibited versus a non-stimulation control.

T1 sequence (Q96D31 whole entry): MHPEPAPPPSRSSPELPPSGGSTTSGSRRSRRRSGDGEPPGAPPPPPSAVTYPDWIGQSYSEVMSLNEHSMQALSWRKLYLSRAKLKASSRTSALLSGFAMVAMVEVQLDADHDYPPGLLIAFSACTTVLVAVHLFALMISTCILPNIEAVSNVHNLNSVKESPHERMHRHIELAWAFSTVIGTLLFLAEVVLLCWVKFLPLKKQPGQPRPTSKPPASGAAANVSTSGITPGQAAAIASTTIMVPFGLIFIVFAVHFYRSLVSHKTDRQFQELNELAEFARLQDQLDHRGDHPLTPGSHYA

inhibition at 0.5 µM (CRACM1/STIM1-CHOK1) [%]	IC50 ([1]; given as activity class) [nM]	IC50 ([1]; numeric values) [nM]	SMILES
70 to 100	< 50	–	Cc1ccc(C#Cc2cccnc2)cc1-c1cnc(NC(=O)c2c(F)cccc2F)cn1 [Compound 1, 2,6-difluoro-N-(5-(2-methyl-5-(pyridin-3-ylethynyl)phenyl)-pyrazin-2-yl)benzamide]
70 to 100	< 50	–	Cc1ccc(C#Cc2cccnc2)cc1-c1ccc(NC(=O)c2c(F)cccc2F)cc1 [Compound 2, 2,6-difluoro-N-(2′-methyl-5′-(pyridin-3-ylethynyl)biphenyl-4-yl)benzamide]
50 to 70	< 50	–	Cc1ccc(Nc2ccccn2)cc1-c1ccc(NC(=O)c2c(F)cccc2F)cc1 [Compound 3, 2,6-difluoro-N-(2′-methyl-5′-(pyridin-2-ylamino)biphenyl-4-yl)benzamide]
70 to 100	< 50	–	O=C(Nc1ccc(-c2cc(Oc3ccccn3)ccc2Cl)cc1)c1c(F)cccc1F [Compound 4, N-(2′-chloro-5′-(pyridin-2-yloxy)biphenyl-4-yl)-2,6-difluorobenzamide]
70 to 100	< 50	–	O=C(Nc1ccc(-c2cc(Oc3ccccn3)ccc2Cl)cn1)c1c(F)cccc1F [Compound 5, N-(5-(2-chloro-5-(pyridin-2-yloxy)phenyl)pyridin-2-yl)-2,6-difluorobenzamide]
70 to 100	< 50	–	Cc1ccc(Oc2cccnc2)cc1-c1ccc(NC(=O)c2c(F)cccc2F)cc1 [Compound 6, 2,6-difluoro-N-(2′-methyl-5′-(pyridin-3-yloxy)biphenyl-4-yl)benzamide]
70 to 100	< 50	–	Cc1ccc(Oc2cccnc2)cc1-c1ccc(NC(=O)c2c(F)cccc2F)nc1 [Compound 7, 2,6-difluoro-N-(5-(2-methyl-5-(pyridin-3-yloxy)phenyl)-pyridin-2-yl)benzamide]
70 to 100	< 50	–	Cc1ccc(Oc2cccnc2)cc1-c1cnc(NC(=O)c2c(F)cccc2F)cn1 [Compound 8, 2,6-difluoro-N-(5-(2-methyl-5-(pyridin-3-yloxy)phenyl)-pyrazin-2-yl)benzamide]
70 to 100	< 50	–	Cc1ccc(Oc2ccccn2)cc1-c1ccc(NC(=O)c2c(F)cccc2F)nc1 [Compound 9, 2,6-difluoro-N-(5-(2-methyl-5-(pyridin-2-yloxy)phenyl)-pyridin-2-yl)benzamide]
70 to 100	50 to 100	–	Cc1cnc(Oc2ccc(Cl)c(-c3ccc(NC(=O)c4c(F)cccc4F)cc3)c2)s1 [Compound 10, N-(2′-chloro-5′-(5-methylthiazol-2-yloxy)biphenyl-4-yl)-2,6-difluorobenzamide]
70 to 100	< 50	–	O=C(Nc1ccc(-c2cc(Oc3nccs3)ccc2Cl)cc1)c1c(F)cccc1F [Compound 11, N-(2′-chloro-5′-(thiazol-2-yloxy)biphenyl-4-yl)-2,6-difluorobenzamide]
70 to 100	< 50	–	O=C(Nc1ccc(-c2cc(Oc3nccs3)ccc2Cl)cn1)c1c(F)cccc1F [Compound 12, N-(5-(2-chloro-5-(thiazol-2-yloxy)phenyl)pyridin-2-yl)-2,6-difluorobenzamide]
70 to 100	< 50	–	Cc1ccc(OCc2ccccn2)cc1-c1ccc(NC(=O)c2c(F)cccc2F)cc1 [Compound 13, 2,6-difluoro-N-(2′-methyl-5′-(pyridin-2-ylmethoxy)-biphenyl-4-yl)benzamide]
70 to 100	< 50	–	Cc1ccc(Cn2ccnc2)cc1-c1ccc(NC(=O)c2c(F)cccc2F)cc1 [Compound 14, N-(5′-((1H-imidazol-1-yl)methyl)-2′-methylbiphenyl-4-yl)-2,6-difluorobenzamide]
70 to 100	< 50	–	Cc1ccc(CCc2cccnc2)cc1-c1ccc(NC(=O)c2c(F)cccc2F)cc1 [Compound 15, 2,6-difluoro-N-(2′-methyl-5′-(2-(pyridin-3-yl)ethyl)biphenyl-4-yl)benzamide]
50 to 70	< 50	–	Cc1ccc(CCc2cccnc2)cc1-c1cnc(NC(=O)c2c(F)cccc2F)cn1 [Compound 16, 2,6-difluoro-N-(5-(2-methyl-5-(2-(pyridin-3-yl)ethyl)phenyl)-pyrazin-2-yl)benzamide]
70 to 100	50 to 100	–	Cc1ccc(CCc2ccccn2)cc1-c1ccc(NC(=O)c2c(F)cccc2F)cc1 [Compound 17, 2,6-difluoro-N-(2′-methyl-5′-(2-(pyridin-2-yl)ethyl)biphenyl-4-yl)benzamide]
50 to 70	50 to 100	–	Cn1cncc1-c1cnc(-c2ccc(Cl)c(-c3ccc(NC(=O)c4c(F)cccc4F)nc3)c2)s1 [Compound 18, N-(5-(2-chloro-5-(5-(1-methyl-1H-imidazol-5-yl)thiazol-2-yl)phenyl)pyridin-2-yl)-2,6-difluorobenzamide]
–	–	27	Cc1ccc(Oc2ccccn2)cc1-c1cnc(NC(=O)c2c(F)cccc2F)cn1 [Compound 32, 2,6-difluoro-N-(5-(2-methyl-5-(pyridin-2-yloxy)phenyl)pyrazin-2-yl)benzamide]
–	–	90	Cc1ccc(Oc2ccccn2)cc1-c1ccc(NC(=O)c2cccc(F)c2C)nc1 [Compound 33, 3-fluoro-2-methyl-N-(5-(2-methyl-5-(pyridin-2-yloxy)phenyl)pyridin-2-yl)benzamide]
–	–	14	Cc1cc(Oc2cccnc2)ncc1-c1ccc(NC(=O)c2cccc(F)c2C)nc1 [Compound 34, 3-fluoro-2-methyl-N-(4′-methyl-6′-(pyridin-3-yloxy)-3,3′-bipyridin-6-yl)benzamide]
–	–	16	Cc1ccc(Oc2ccccn2)cc1-c1ccc(NC(=O)c2ccncc2F)nc1 [Compound 35, 3-fluoro-N-(5-(2-methyl-5-(pyridin-2-yloxy)phenyl)pyridin-2-yl)isonicotinamide]
–	–	16	O=C(Nc1cnc(-c2cc(Oc3ccccn3)ccc2Cl)cn1)c1c(F)cccc1F [Compound 36, N-(5-(2-chloro-5-(pyridin-2-yloxy)phenyl)pyrazin-2-yl)-2,6-difluorobenzamide]
–	–	21	COc1ccc(Oc2ccccn2)cc1-c1ccc(NC(=O)c2cccc(F)c2C)nc1 [Compound 38, 3-fluoro-N-(5-(2-methoxy-5-(pyridin-2-yloxy)phenyl)pyridin-2-yl)-2-methylbenzamide]
–	–	25	COc1ccc(Oc2ccccn2)cc1-c1cnc(NC(=O)c2c(F)cccc2F)cn1 [Compound 39, 2,6-difluoro-N-(5-(2-methoxy-5-(pyridin-2-yloxy)phenyl)pyrazin-2-yl)benzamide]
–	–	39	Cc1ccc(Oc2ccncc2)cc1-c1ccc(NC(=O)c2cccc(F)c2C)nc1 [Compound 40, 3-fluoro-2-methyl-N-(5-(2-methyl-5-(pyridin-4-yloxy)phenyl)pyridin-2-yl)benzamide]
–	–	47	Cc1c(F)cccc1C(=O)Nc1ccc(-c2cc(Oc3cccnc3)ccc2C(F)(F)F)cn1 [Compound 41, 3-fluoro-2-methyl-N-(5-(5-(pyridin-3-yloxy)-2-(trifluoromethyl)phenyl)pyridin-2-yl)benzamide]
